Laboratory results as given in the supplement of paper PMC10307832.

Experiments:
Test in all cases: relative viability (nuclei count vs DMSO), 5 days (fraction); higher = more cells survive
Erlotinib = compound: C#Cc1cccc(Nc2ncnc3cc(OCCOC)c(OCCOC)cc23)c1 [Erlotinib]
Outline: (§1)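 MetaXpress counted nuclei in 4× images of lung cancer cell lines that had been fixed, permeabilised and Hoechst-stained in one step. Before that, cells in 1536-well plates were kept overnight at 37 °C, pinned with five √10-spaced library-drug doses on vehicle-anchored plates, and cultured 5 days without medium change. Viability takes treated-well nuclei over vehicle-well nuclei and uses the median across plates. Plates were accepted only at control CV below 25% and at least one doubling.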

Phenformin = compound: N=C(N)NC(=N)NCCc1ccccc1 [Phenformin] (anchor plate); details: 250 µM
Outline: as §1

AT9283 = compound: O=C(Nc1c[nH]nc1-c1nc2ccc(CN3CCOCC3)cc2[nH]1)NC1CC1 [AT9283]
Outline: as §1

How did the relative viability (Erlotinib; 0.02 µM) turn out when SK-LU-1 was run?
Its relative viability is 1.11.

What about the relative viability (Erlotinib; 0.2 µM) of the same cell line?
The relative viability was 1.11.

And the relative viability (Erlotinib; 0.6325 µM)?
Its relative viability is 1.13.

What about the relative viability (Erlotinib; 2 µM) of the same cell line?
The relative viability was 0.907.

What about the relative viability (Phenformin) of the same cell line?
Its relative viability is 0.523.

What about the relative viability (AT9283; 0.003 µM) of the same cell line?
The relative viability was 1.06.

What about the relative viability (AT9283; 0.03 µM) of the same cell line?
Its relative viability is 0.691.

What about the relative viability (AT9283; 0.09487 µM) of the same cell line?
Its relative viability is 0.312.

And the relative viability (AT9283; 0.3 µM)?
Its relative viability is 0.335.

SK-MES-1 was tested. Which relative viability (Erlotinib; 0.02 µM) did it give?
Its relative viability is 1.02.

And the relative viability (Erlotinib; 0.2 µM)?
Its relative viability is 0.809.

And the relative viability (Erlotinib; 0.6325 µM)?
Its relative viability is 0.498.

And the relative viability (Erlotinib; 2 µM)?
The relative viability was 0.41.

And the relative viability (Phenformin)?
The relative viability was 0.665.

And the relative viability (AT9283; 0.003 µM)?
The relative viability was 1.05.

What about the relative viability (AT9283; 0.03 µM) of the same cell line?
Its relative viability is 0.975.

What about the relative viability (AT9283; 0.09487 µM) of the same cell line?
Its relative viability is 0.581.

What about the relative viability (AT9283; 0.3 µM) of the same cell line?
The relative viability was 0.232.

Which relative viability (Erlotinib; 0.02 µM) does the source give for SW 900 here?
The relative viability was 1.

What about the relative viability (Erlotinib; 0.2 µM) of the same cell line?
Its relative viability is 0.803.

And the relative viability (Erlotinib; 0.6325 µM)?
The relative viability was 0.863.

And the relative viability (Erlotinib; 2 µM)?
The relative viability was 0.65.

What about the relative viability (Phenformin) of the same cell line?
Its relative viability is 0.717.

And the relative viability (AT9283; 0.003 µM)?
Its relative viability is 0.755.

And the relative viability (AT9283; 0.03 µM)?
The relative viability was 1.01.

And the relative viability (AT9283; 0.09487 µM)?
The relative viability was 0.626.

What about the relative viability (AT9283; 0.3 µM) of the same cell line?
Its relative viability is 0.358.

Which results are given for SW 1573?
relative viability (Erlotinib; 0.02 µM): 1.02; relative viability (Erlotinib; 0.2 µM): 0.955; relative viability (Erlotinib; 0.6325 µM): 1.02; relative viability (Erlotinib; 2 µM): 0.925; relative viability (Phenformin): 0.385; relative viability (AT9283; 0.003 µM): 0.913; relative viability (AT9283; 0.03 µM): 0.326; relative viability (AT9283; 0.09487 µM): 0.222; relative viability (AT9283; 0.3 µM): 0.177

What does the source list for UMC-11?
relative viability (Erlotinib; 0.02 µM): 0.956; relative viability (Erlotinib; 0.2 µM): 0.944; relative viability (Erlotinib; 0.6325 µM): 1.18; relative viability (Erlotinib; 2 µM): 0.964; relative viability (Phenformin): 0.318; relative viability (AT9283; 0.003 µM): 0.903; relative viability (AT9283; 0.03 µM): 0.171; relative viability (AT9283; 0.09487 µM): 0.146; relative viability (AT9283; 0.3 µM): 0.212
